From the supplement of paper PMC10307832

Key:
Metformin + AZD7762 = compound: CN(C)C(=N)NC(=N)N [Metformin] + NC(=O)Nc1cc(-c2cccc(F)c2)sc1C(=O)N[C@H]1CCCNC1 [AZD7762] (partner 0.2 µM); assay: relative viability (nuclei count vs DMSO), 5 days (fraction); higher = more cells survive
In short: (§1)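 Lung cancer cell lines, seeded in 1536-well plates, were treated the following day by pin tool with a single drug or with five library-drug doses (not always all listed) in √10 steps on top of a fixed anchor-drug dose. Cells were fixed and nuclei stained in one step after 5 days, and nuclei were counted. Relative viability is the nuclei count for treated wells divided by that for vehicle wells, reported as medians of duplicate plates.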

Metformin + Trametinib = compound: CN(C)C(=N)NC(=N)N [Metformin] + CC(=O)Nc1cccc(-n2c(=O)n(C3CC3)c(=O)c3c(Nc4ccc(I)cc4F)n(C)c(=O)c(C)c32)c1 [Trametinib] (partner 0.02 µM); assay: as above
In short: as §1

Row | Cell Line | relative viability (Metformin + AZD7762; first compound 10 µM) | relative viability (Metformin + AZD7762; first compound 31.62 µM) | relative viability (Metformin + AZD7762; first compound 100 µM) | relative viability (Metformin + AZD7762; first compound 316.23 µM) | relative viability (Metformin + AZD7762; first compound 1000 µM) | relative viability (Metformin + Trametinib; first compound 10 µM) | relative viability (Metformin + Trametinib; first compound 31.62 µM) | relative viability (Metformin + Trametinib; first compound 100 µM) | relative viability (Metformin + Trametinib; first compound 316.23 µM) | relative viability (Metformin + Trametinib; first compound 1000 µM)
1 | HARA | 0.279 | 0.47 | 0.362 | 0.293 | 0.287 | 1.45 | 1.35 | 1.27 | 1.22 | 1.13
2 | NCI-H1792 | 0.598 | 0.667 | 0.539 | 0.56 | 0.796 | 0.566 | 0.483 | 0.567 | 0.431 | 0.433
3 | HCC-366 | 0.233 | 0.299 | 0.362 | 0.265 | 0.371 | 0.301 | 0.289 | 0.23 | 0.279 | 0.314
4 | NCI-H2342 | – | 0.441 | 0.366 | 0.46 | 0.386 | – | 0.773 | 0.9 | 0.823 | 0.801
5 | HCC-827 | 0.245 | 0.174 | 0.257 | 0.217 | 0.36 | 0.575 | 0.567 | 0.616 | 0.577 | 0.605
6 | NCI-H1648 | – | 0.575 | 0.681 | 0.574 | 0.663 | – | 0.553 | 0.68 | 0.53 | 0.73
7 | NCI-H2126 | 0.953 | 0.963 | 0.916 | 0.92 | 0.935 | 0.517 | 0.538 | 0.563 | 0.504 | 0.587
8 | ABC-1 | 1.24 | 1.03 | 0.986 | 1.1 | 0.909 | – | – | – | – | –
9 | LK-2 | 0.359 | 0.454 | 0.512 | 0.361 | 0.548 | 0.829 | 1.23 | 1.54 | 1.08 | 1.26
10 | COR-L23 | – | – | – | – | – | 0.538 | 0.506 | 0.5 | 0.456 | 0.506
11 | NCI-H1703 | 0.138 | 0.139 | 0.135 | 0.112 | 0.132 | – | – | – | – | –
12 | NCI-H1915 | – | 0.713 | 0.686 | 0.669 | 0.707 | – | 0.302 | 0.302 | 0.289 | –
13 | NCI-H2228 | – | – | – | – | – | 0.699 | 0.681 | 0.398 | 0.434 | 0.553
14 | NCI-H23 | 0.351 | 0.178 | 0.348 | 0.293 | 0.421 | 0.433 | 0.492 | 0.384 | 0.385 | 0.575
15 | NCI-H596 | 1.18 | 1.13 | 1.3 | 1.08 | 1.23 | 0.965 | 0.899 | 1.01 | 0.706 | 0.872
16 | NCI-H1734 | 0.61 | 0.542 | 0.541 | 0.579 | 0.53 | 0.652 | 0.763 | 0.653 | 0.662 | 0.726
17 | NCI-H2405 | – | 0.866 | 0.831 | 0.722 | 0.515 | – | 0.744 | 0.635 | 0.688 | 0.555
18 | NCI-H727 | 0.655 | 0.624 | 0.565 | – | 0.525 | 0.404 | 0.369 | 0.41 | – | 0.349
19 | NCI-H2009 | – | – | – | – | – | 0.366 | 0.362 | 0.387 | 0.36 | 0.384
